Where two headings read alike, the source gives them in different places.

The text below walks through data of paper PMC10461232, “Structure-Based Design of Transport-Specific Multitargeted One-Carbon Metabolism Inhibitors in Cytosol and Mitochondria” (Journal of Medicinal Chemistry, 2023).

One test deals with T1, human GARFTase (Homo sapiens, UniProt P22102).
T1 construct: formyltransferase domain of human GARFTase (residues 808–1010); made in house; host or cells: E. coli Rosetta (DE3)pLysS
T1 sequence (P22102 808-1010): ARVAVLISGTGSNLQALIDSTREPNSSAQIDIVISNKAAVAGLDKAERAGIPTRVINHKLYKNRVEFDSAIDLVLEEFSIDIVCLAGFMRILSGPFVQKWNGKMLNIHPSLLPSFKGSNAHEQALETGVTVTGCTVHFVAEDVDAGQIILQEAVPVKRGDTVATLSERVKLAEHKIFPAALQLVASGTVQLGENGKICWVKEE
As to the kind of experiment: GARFTase inhibition assay, Ki (10-formyl THF to THF, absorbance 298 nm). Format: biochemical. The following applies: purified His-GARFTase, 40 μM 10-formyl THF, 37 °C; mean (SD), at least 3 replicates.

Another test has as its system KB (RFC/PCFT/FRα) cells. The experiment in a line: Growth inhibition, KB nasopharyngeal carcinoma cells. In kind it is cell-based, human. Conditions: folate-free RPMI 1640, 2 nM leucovorin, mean (SE). The procedure:
The CHO cells were cultured in α-minimal essential medium (MEM) supplemented with 10% bovine calf serum (Fisher Scientific), penicillin (1000 U/mL)/streptomycin (1000 μg/mL), and 2 mM L-glutamine at 37 °C with 5% CO2. All of the R2 transfected cells (PC43-10, RT16, R2/PCFT4) were cultured in complete α-MEM media plus 1 mg/mL G418. Prior to the cytotoxicity assays (see below), RT16 and D4 cells were cultured for 3 days in complete folate-free RPMI 1640 (without added folate), and R2/PCFT4 and R2 cells were cultured in complete folate-free RPMI 1640 supplemented with dialyzed fetal bovine serum (Fisher Scientific) and 25 nM leucovorin plus 1 mg/mL G418. KB cells were routinely cultured in folate-free RPMI 1640 medium, supplemented with 10% fetal bovine serum (Fisher Scientific), penicillin-streptomycin solution, and 2 mM L-glutamine at 37 °C with 5% CO2.
For growth inhibition studies, cells (CHO, KB) were plated in 96-well dishes (∼2500–5000 cells/well, total volume of 200 μL medium) over a range of antifolate concentrations.[69],[77] The medium was folate-free RPMI 1640 with 10% dialyzed serum and antibiotics supplemented with 25 nM leucovorin for experiments with R2, PC43-10, and R2/PCFT4 cells. For experiments with RT16, D4, and KB cells, cells were cultured in folate-free RPMI medium with 10% dialyzed fetal bovine serum and antibiotics; the medium was supplemented with 2 nM leucovorin. […] Incubations were routinely for up to 96 h. Viable cells (reflecting cell viability) were assayed with Cell Titer Blue reagent (Promega, Madison, WI), with fluorescence measured (590 nm emission, 560 nm excitation) with a fluorescence plate reader.

Another test has as its system RT16 (FRα) CHO cells. As to the kind of experiment: Growth inhibition, RT16 CHO cells expressing human FRα. Conditions: Cricetulus griseus. Format: cell-based, Chinese hamster.
The test system of another test is PC43-10 (RFC) CHO cells. As to the kind of experiment: Growth inhibition, PC43-10 CHO cells expressing human RFC. In kind it is cell-based, Chinese hamster. Conditions: Cricetulus griseus, 96 h, read-out: IC50 PC43-10 (RFC).
The subject of another test is D4 (FRβ) CHO cells. As to the kind of experiment: Growth inhibition, D4 CHO cells expressing human FRβ. Format: cell-based, Chinese hamster. The following applies: Cricetulus griseus, CHO.
A further test has as its system HPAC (RFC/PCFT) cells. As to the kind of experiment: Proliferation inhibition, HPAC pancreatic adenocarcinoma cells. Format: cell-based, human. The following applies: Homo sapiens, HPAC, HPAC cells, folate- and glycine-free RPMI, 25 nM leucovorin; mean (SE). The source says: (§1) The RFC-, PCFT-, and FR-null MTXRIIOua^R2–4 (R2), and RFC- (PC43-10), PCFT- (R2/PCFT4), FRα- (RT16), and FRβ- (D4) expressing CHO sublines were previously described.[62]−[64],[76] HPAC pancreatic cancer cells were generously provided by Dr. Yubin Ge (Karmanos Cancer Institute, Detroit, MI). Human pancreatic normal epithelial (HPNE) cells[67] were a gift from M. Oulette (University of Nebraska Medical Center, Omaha, NE). KB human nasopharyngeal carcinoma cells were purchased from the American Type Culture Collection (Manassas, VA). All human cell lines were validated by STR analysis by Genetica DNA Laboratories (Burlington, NC). Cell lines were tested for Mycoplasma by PCR using a Mycloplasma testing kit (Venor GeM Mycoplasma Detection Kit, Sigma). Frozen stocks were generated from authenticated Mycoplasma-free cultures.

In test [1] the test system is R2/PCFT4 (PCFT) CHO cells. The experiment in a line: Growth inhibition, R2/PCFT4 CHO cells expressing human PCFT. The following applies: Cricetulus griseus, 96 h, read-out: IC50 R2/PCFT4 (PCFT). Format: cell-based, Chinese hamster.
Test [2] concerns R2 (MTXRIIOuaR2-4) CHO cells. As to the kind of experiment: Growth inhibition, transporter-null R2 CHO cells. Format: cell-based, Chinese hamster. The following applies: Cricetulus griseus, 96 h, read-out: IC50 R2.
The next test concerns HPNE (RFC) cells. The experiment in a line: Proliferation inhibition, HPNE normal pancreatic epithelial cells. The following applies: Homo sapiens, folate- and glycine-free RPMI, 25 nM leucovorin. Format: cell-based.
Description: as §1

For another test, the target named is T2, human ATIC (Homo sapiens, UniProt P31939).
T2 construct: N-terminal His6-tagged full-length human ATIC; made in house; host or cells: E. coli Rosetta (DE3)pLysS
The experiment in a line: AICARFTase (ATIC) inhibition assay, Ki. In kind it is biochemical. On the procedure:
The cells were grown at 37 °C in 1 L cultures of LB media containing […] and […] until OD600 reached 0.6. Protein expression was induced by the addition of isopropyl β-D1-thiogalactopyranoside (IPTG, 500 μM).
His-ATIC was purified by Ni-NTA chromatography (Gold Biotechnology).[36] […] His-ATIC was eluted in 1 column volume fractions, 5 times with buffer containing 300 mM imidazole, 25 mM Tris-HCl, pH 7.5, 300 mM NaCl, and 5 mM β-Me. Size exclusion chromatography on a Superdex 200 16/60 (GE Healthcare) column was used for final purification using 20 mM Tris-HCl, pH 7.5, 150 mM NaCl, 50 mM KCl, 5 mM EDTA, and 5 mM dithiothreitol.
(§2) MTHFD2 activities were assayed by a reaction with methylene THF and NAD^+. NADH production was measured by fluorescence (excitation 340 nm, emission 480 nm). Reaction conditions included 100 nM MTHFD2, 5 μM methylene THF, and concentrations of small-molecule inhibitor ranging from 0.02 nM to 2000 nM; NAD^+ (2.5 mM) was added to initiate the reaction. The reaction buffer consisted of 50 mM Tris-HCl, pH 7.5, 250 mM NaCl, 5 mM magnesium chloride, 5% glycerol, and 0.5 mM TCEP. […] To assay SHMT1 or SHMT2 (SHMT1/2) enzymes, a coupled reaction with His-MTHFD2 in 200-fold molar excess was used where the production of NADH was monitored by fluorescence with excitation at 360 nm and emission at 470 nm at 25 °C. The reactions contained 5 nM His-SHMT1/2, 50 μM THF, 20 mM serine, 10 μM His-MTHFD2, 2.5 mM NAD^+, and a range of inhibitor concentrations (final concentrations). The reactions were performed in buffer containing 20 mM sodium phosphate, pH 7.5, 100 mM KCl, 0.2 mM EDTA, and 5 mM β-Me. […] To calculate IC50 values for each inhibitor, initial velocities were graphed as a function of inhibitor concentrations and fit with a three-parameter nonlinear regression (GraphPad Prism 8.0). The equation [Ki = IC50/([S]/KM + 1)] was used to convert IC50’s to Ki values.

The target in another test is T3, SHMT2 (Homo sapiens, UniProt P34897).
T3 construct: made in house; host or cells: E. coli Rosetta (DE3)pLysS
T3 sequence (P34897 30-504): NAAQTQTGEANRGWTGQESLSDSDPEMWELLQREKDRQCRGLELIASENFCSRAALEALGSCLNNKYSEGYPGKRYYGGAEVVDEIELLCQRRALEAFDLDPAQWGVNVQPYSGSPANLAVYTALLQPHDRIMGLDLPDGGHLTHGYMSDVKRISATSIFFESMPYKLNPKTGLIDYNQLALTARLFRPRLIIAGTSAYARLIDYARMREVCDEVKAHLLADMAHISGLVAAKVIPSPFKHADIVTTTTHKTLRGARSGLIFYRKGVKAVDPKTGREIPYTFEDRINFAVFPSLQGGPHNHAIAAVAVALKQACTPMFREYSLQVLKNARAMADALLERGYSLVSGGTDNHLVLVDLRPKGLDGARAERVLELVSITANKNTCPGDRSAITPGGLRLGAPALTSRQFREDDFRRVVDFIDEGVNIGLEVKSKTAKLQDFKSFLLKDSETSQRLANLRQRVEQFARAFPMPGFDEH
As to the kind of experiment: SHMT2 inhibition assay coupled with MTHFD2, Ki. Conditions: purified His-SHMT2, 50 μM THF, 25 °C; mean (SD), at least 3 replicates. In kind it is biochemical. The procedure: as §2

The next test deals with T4, SHMT1 (Homo sapiens, UniProt P34896).
T4 construct: full-length SHMT1 with an N-terminal His6-tag; made in house; host or cells: E. coli Rosetta (DE3)pLysS
T4 sequence (P34896 1-483): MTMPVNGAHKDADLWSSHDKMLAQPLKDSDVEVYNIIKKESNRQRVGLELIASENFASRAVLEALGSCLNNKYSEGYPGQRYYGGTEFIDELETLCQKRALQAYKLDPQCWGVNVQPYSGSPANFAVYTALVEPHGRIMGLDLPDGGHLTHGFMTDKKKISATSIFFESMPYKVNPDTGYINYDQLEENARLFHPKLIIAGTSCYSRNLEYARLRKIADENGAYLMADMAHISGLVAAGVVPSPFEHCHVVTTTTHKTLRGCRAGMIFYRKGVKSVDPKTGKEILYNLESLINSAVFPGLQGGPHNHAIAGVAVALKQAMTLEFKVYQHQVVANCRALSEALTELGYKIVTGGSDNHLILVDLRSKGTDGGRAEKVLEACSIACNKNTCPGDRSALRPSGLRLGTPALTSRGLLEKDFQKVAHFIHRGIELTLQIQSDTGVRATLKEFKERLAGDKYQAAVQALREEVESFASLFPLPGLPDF
As to the kind of experiment: SHMT1 inhibition assay coupled with MTHFD2, Ki. In kind it is biochemical. Conditions: purified His-SHMT1, 50 μM THF, 25 °C; mean (SD), at least 3 replicates.

T2 sequence (P31939 whole entry): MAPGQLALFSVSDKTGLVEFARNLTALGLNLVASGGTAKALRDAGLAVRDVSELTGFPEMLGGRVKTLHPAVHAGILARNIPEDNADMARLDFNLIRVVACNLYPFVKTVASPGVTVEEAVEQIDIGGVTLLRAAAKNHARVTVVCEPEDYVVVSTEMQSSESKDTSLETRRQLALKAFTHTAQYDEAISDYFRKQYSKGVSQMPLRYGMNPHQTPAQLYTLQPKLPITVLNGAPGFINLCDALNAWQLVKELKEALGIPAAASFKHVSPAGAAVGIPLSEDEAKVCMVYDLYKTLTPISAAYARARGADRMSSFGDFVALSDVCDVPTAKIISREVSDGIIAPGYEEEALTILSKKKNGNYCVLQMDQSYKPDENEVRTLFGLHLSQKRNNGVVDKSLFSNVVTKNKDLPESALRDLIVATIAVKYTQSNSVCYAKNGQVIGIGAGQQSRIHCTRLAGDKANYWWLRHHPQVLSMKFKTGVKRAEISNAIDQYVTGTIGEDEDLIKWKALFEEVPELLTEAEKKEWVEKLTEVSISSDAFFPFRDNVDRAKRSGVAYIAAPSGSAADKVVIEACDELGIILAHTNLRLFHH
Description for SHMT1: Kinetic measurements were recorded in triplicate using a flat, black-bottom, black-walled 96-well plate (Greiner Bio-One, 655900) and a BioTek Synergy Neo2 Plate Reader. […] To assay SHMT1 or SHMT2 (SHMT1/2) enzymes, a coupled reaction with His-MTHFD2 in 200-fold molar excess was used where the production of NADH was monitored by fluorescence with excitation at 360 nm and emission at 470 nm at 25 °C. The reactions contained 5 nM His-SHMT1/2, 50 μM THF, 20 mM serine, 10 μM His-MTHFD2, 2.5 mM NAD^+, and a range of inhibitor concentrations (final concentrations). The reactions were performed in buffer containing 20 mM sodium phosphate, pH 7.5, 100 mM KCl, 0.2 mM EDTA, and 5 mM β-Me. A BioTek Synergy Neo2 Plate Reader was used to record kinetic measurements in triplicate in a UV-transparent 96-well plate (Costar 3635) for GARFTase and AICARFTase assays and a black-well, black-bottom 96-well plate (Corning 3603). To calculate IC50 values for each inhibitor, initial velocities were graphed as a function of inhibitor concentrations and fit with a three-parameter nonlinear regression (GraphPad Prism 8.0). The equation [Ki = IC50/([S]/KM + 1)] was used to convert IC50’s to Ki values.

Take `Nc1nc2ccn(CCCCc3ccc(C(=O)N[C@@H](CCC(=O)O)C(=O)O)c(F)c3)c2c(=O)[nH]1` [Compound 1, (4-(4-(2-Amino-4-oxo-3,4-dihydro-5H-pyrrolo[3,2-d]pyrimidin-5-yl)butyl)-2-fluorobenzoyl)-L-glutamic Acid]: the inhibitory constant (Ki) – broadly, a dissociation constant, usually derived from enzyme kinetics or from competition with a known ligand – at human GARFTase is 3130 nM. Also, the IC50 in the test on KB (RFC/PCFT/FRα) cells (Homo sapiens, KB) turned out to be 1.3 nM; in the test with KB (RFC/PCFT/FRα) cells it was 1.25 nM; in the test on RT16 (FRα) CHO cells (RT16, read-out: IC50 FRα (cell-based inhibition), Figure 14, from Table 3 (RT16 cells)), 1 nM; with PC43-10 (RFC) CHO cells it was 224 nM; in the test on D4 (FRβ) CHO cells (read-out: IC50 FRβ (cell-based inhibition), Figure 14, from Table 3 (D4 cells)), 1 nM; with HPAC (RFC/PCFT) cells, 196 nM. Further, the IC50 is 479 nM in [1], above 1000 nM in test [2] (CHO) and above 5 µM in the test with HPNE (RFC) cells.

For the molecule `Nc1nc2ccn(CCCCc3csc(C(=O)N[C@@H](CCC(=O)O)C(=O)O)c3F)c2c(=O)[nH]1` [Compound 14, (4-(4-(2-Amino-4-oxo-3,4-dihydro-5H-pyrrolo[3,2-d]pyrimidin-5-yl)butyl)-3-fluorothiophene-2-carbonyl)-L-glutamic Acid], the inhibition constant (Ki) at human GARFTase came out at 2490 nM; on human ATIC (purified His-ATIC, AICARFTase activity, 50 μM 10-formyl THF, 25 °C, mean (SD), at least 3 replicates) it was 930 nM. Also, the IC50 was 6 nM in the test with KB (RFC/PCFT/FRα) cells (Homo sapiens, KB); 19.8 nM in the test on RT16 (FRα) CHO cells (96 h, CHO cells expressing human FRα, 96 h, 2 nM leucovorin, mean (SE), read-out: IC50 RT16 (FRα)); above 1000 nM with PC43-10 (RFC) CHO cells (CHO cells expressing human RFC, 25 nM leucovorin, mean (SE)); 6.2 nM in the test on D4 (FRβ) CHO cells (96 h, CHO cells expressing human FRβ, 96 h, 2 nM leucovorin, mean (SE), read-out: IC50 D4 (FRβ)); 1600 nM in the test on HPAC (RFC/PCFT) cells; above 1000 nM in test [1] (CHO cells expressing human PCFT, 25 nM leucovorin, mean (SE)). The IC50 is above 1000 nM in test [2] (transporter-null CHO cells, 25 nM leucovorin, mean (SE)) and above 5 µM with HPNE (RFC) cells. In addition, the “fold better than 1, ATIC” value at human ATIC (ratio of Ki values relative to compound 1) is around 4 fold.

`CN(Cc1cnc2nc(N)nc(N)c2n1)c1ccc(C(=O)N[C@@H](CCC(=O)O)C(=O)O)cc1` [MTX, methotrexate]: the inhibition constant Ki on SHMT2 was 98 ± 17 µM; on SHMT1 it was above 200 µM.

As to `Nc1nc2[nH]cc(CCc3ccc(C(=O)N[C@@H](CCC(=O)O)C(=O)O)cc3)c2c(=O)[nH]1` [PMX, N-{4-[2-(2-amino-3,4-dihydro-4-oxo-7H-pyrrolo[2,3-d]pyrimidin-5-yl)ethyl]benzoyl}-L-glutamic acid], the Ki at SHMT2 and on SHMT1 was above 200 µM in each case.
